From patent US20250268826A1, “IONIZABLE LIPIDOID COMPOSITIONS AND THERAPEUTIC USES THEREOF” (Flagship Pioneering Innovations VII, LLC, priority 2023, published 2025)

Assays:
Format in all cases: physicochemical
[1] = LNP size and polydispersity index (PDI) by dynamic light scattering (DLS)
[2] = LNP Zeta potential measured using a Zetasizer (Malvern); conditions: for Zeta potential (mV): LNP with hEPO mRNA, N:P ratio 6; for Zeta potential: hEPO mRNA, N:P 6
[3] = Encapsulation efficiency (EE %) by fluorescence based Ribogreen assay
[4] = Table 10, LNP with hEPO mRNA, Lipid:DSPC:Cholesterol:DMG-PEG2k 50:10:38.5:1.5 mol %, N:P ratio 6, DLS
[5] = Table 11, LNP with hEPO mRNA, Lipid:DSPC:Cholesterol:DMG-PEG2k 50:10:38.5:1.5 mol % (ALC-0315: 46.3:9.4:42.7:1.6), N:P ratio 6, HEPES/sodium chloride/sucrose buffer, stored at −80C
[6] = Table 11, Lipid:DSPC:Cholesterol:DMG-PEG2k 50:10:38.5:1.5 mol % (ALC-0315: 46.3:9.4:42.7:1.6), HEPES/sodium chloride/sucrose buffer, stored at −80C
[7] = Table 5, LNP 50:10:38.5:1.5 mol %, hEPO mRNA, N:P 6
[8] = Table 5, LNP Lipid:DSPC:Cholesterol:DMG-PEG2k 50:10:38.5:1.5 mol %, hEPO mRNA, N:P 6
[9] = Table 5, LNP 50:10:38.5:1.5 mol %
[10] = Table 8, LNP 50:10:38.5:1.5 mol %, hEPO mRNA, N:P 6
[11] = Table 1, LNP lipid:DSPC:Cholesterol:DMG-PEG2k 50:10:38.5:1.5 mol %, hEPO mRNA, N:P 6
[12] = Table 1, LNP lipid:DSPC:Cholesterol:DMG-PEG2k 50:10:38.5:1.5 mol %
[13] = Table 3, LNP 50:10:38.5:1.5 mol %, hEPO mRNA, N:P 6
[14] = Table 5, LNP 60:0:38.5:1.5 mol %, hEPO mRNA, N:P 6
[15] = Table 9, LNP 50:10:38.5:1.5 mol %, hEPO mRNA, N:P 6
[16] = Table 9, LNP Lipid:DSPC:Cholesterol:DMG-PEG2k 50:10:38.5:1.5 mol %, hEPO mRNA, N:P 6
[17] = Table 9, LNP 50:10:38.5:1.5 mol %

## CCCCCCCCCC(CCCCCCCCC)C(=O)OCCN(CCOC(=O)C(CCCCCCCCC)CCCCCCCCC)C(=O)CCN(CC)CC [Compound 917f]
[1]; [4]
  PDI: 0.314
  Size (nm): 51.5 nm
[2]; Table 10, Lipid:DSPC:Cholesterol:DMG-PEG2k 50:10:38.5:1.5 mol %
  Zeta potential (mV): −11.1 mV
[3]; Table 10, LNP with hEPO mRNA, Lipid:DSPC:Cholesterol:DMG-PEG2k 50:10:38.5:1.5 mol %, N:P ratio 6, Ribogreen assay
  Encapsulation Efficiency %: 91.9%

## CCCCCCCCC(CCCCCC)C(=O)OCCN(CCOC(=O)C(CCCCCC)CCCCCCCC)C(=O)C(C)CCNC.Cl (centres unmarked) [Compound 987d]
[1]; [5]
  PDI: 0.092
  Size (nm): 62.9 nm
[2]; [6]
  Zeta potential (mV): −1.5 mV
[3]; [5]
  Encapsulation Efficiency %: 99.2%

## CCCCCCCCC(CCCCCC)C(=O)OCCN(CCOC(=O)C(CCCCCC)CCCCCCCC)C(=O)C(C)CCN(C)CCO.Cl (centres unmarked) [Compound 987p]
[1]; [5]
  PDI: 0.114
  Size (nm): 74.2 nm
[2]; [6]
  Zeta potential (mV): −1.5 mV
[3]; [5]
  Encapsulation Efficiency %: 99.2%

## CCCCCCCCCCCCC(CC)C(=O)OCCN(CCOC(=O)C(CC)CCCCCCCCCCCC)C(=O)C(N)Cc1ccccc1 (centres unmarked) [Compound 620]
[1]; [7]
  PDI: 0.23
[1]; [8]
  Size: 56.7 nm
[2]; [9]
  Zeta potential: −5.044 mV
[3]; [7]
  Encapsulation Efficiency %: 99%

## CCCCCCCCC(CCCCCC)C(=O)OCCN(CCOC(=O)C(CCCCCC)CCCCCCCC)C(=O)CCCN(C)C (centres unmarked) [Compound 931]
[1]; [10]
  PDI: 0.117
[1]; Table 8, LNP Lipid:DSPC:Cholesterol:DMG-PEG2k 50:10:38.5:1.5 mol %, hEPO mRNA, N:P 6
  Size: 125.8 nm
[2]; Table 8, LNP 50:10:38.5:1.5 mol %
  Zeta potential: −8.457 mV
[3]; [10]
  Encapsulation Efficiency %: 99.9%

## CCCCCCCC(CCCCCCC)C(=O)OCCN(CCOC(=O)C(CCCCCCC)CCCCCCC)C(=O)C(C)CCN(C)C.Cl (centres unmarked) [Compound 987b]
[1]; [5]
  PDI: 0.102
  Size (nm): 74.1 nm
[2]; [6]
  Zeta potential (mV): −2.1 mV
[3]; [5]
  Encapsulation Efficiency %: 93.6%

## CCCCCCCCCCCC(=O)OCCN(CCOC(=O)CCCCCCCCCCC)C(=O)CN [Compound 103]
[1]; [11]
  PDI: 0.092
  Size: 77.3 nm
[2]; [12]
  Zeta potential: 9.778 mV
[3]; [11]
  Encapsulation Efficiency %: 97.5%

## CCCCCCC(CCCC)C(=O)OCCN(CCOC(=O)C(CCCC)CCCCCC)C(=O)CN (centres unmarked) [Compound 602]
[1]; [7]
  PDI: 0.337
[1]; [8]
  Size: 84.8 nm
[2]; [9]
  Zeta potential: −5.94 mV
[3]; [7]
  Encapsulation Efficiency %: 99.1%

## CCCCCCCCCC(=O)OCCN(CCOC(=O)CCCCCCCCC)C(=O)C(N)Cc1c[nH]cn1 (centres unmarked) [Compound 128]
[1]; [11]
  PDI: 0.058
  Size: 77.8 nm
[2]; [12]
  Zeta potential: 6.43 mV
[3]; [11]
  Encapsulation Efficiency %: 95.2%

## CCCCCCCCCC(CCCCCCCCC)C(=O)OCCN(CCOC(=O)C(CCCCCCCCC)CCCCCCCCC)C(=O)C(N)Cc1ccccc1 (centres unmarked) [Compound 621]
[1]; [7]
  PDI: 0.332
[1]; [8]
  Size: 49.4 nm
[2]; [9]
  Zeta potential: −10.9 mV
[3]; [7]
  Encapsulation Efficiency %: 98.9%

## CCCCCCCCC(CCCCCC)C(=O)OCCN(CCOC(=O)C(CCCCCC)CCCCCCCC)C(=O)CNCCO (centres unmarked) [Compound 305]
[1]; [13]
  PDI: 0.051
[1]; Table 3, LNP lipid:DSPC:Cholesterol:DMG-PEG2k 50:10:38.5:1.5 mol %, hEPO mRNA, N:P 6
  Size: 53.3 nm
[1]; [7]
  PDI: 0.05
[1]; [14]
  PDI: 0.098
  Size: 52.7 nm
[1]; [8]
  Size: 59.3 nm
[2]; [9]
  Zeta potential: −0.5189 mV
[2]; Table 5, LNP 60:0:38.5:1.5 mol %
  Zeta potential: −2.027 mV
[3]; [13]
  Encapsulation Efficiency %: 99.3%
[3]; [7]
  Encapsulation Efficiency %: 99.5%
[3]; [14]
  Encapsulation Efficiency %: 99.5%

## CCCCCC(CCCCC)C(=O)OCCN(CCOC(=O)C(CCCCC)CCCCC)C(=O)C(N)Cc1ccccc1 (centres unmarked) [Compound 615]
[1]; [7]
  PDI: 0.408
[1]; [8]
  Size: 104.2 nm
[2]; [9]
  Zeta potential: −11.83 mV
[3]; [7]
  Encapsulation Efficiency %: 98.7%

## CCCCCCCCC(CCCCCC)C(=O)OCCN(CCOC(=O)C(CCCCCC)CCCCCCCC)C(=O)C(C)CCNCCC.Cl (centres unmarked) [Compound 987h]
[1]; [5]
  PDI: 0.099
  Size (nm): 69.1 nm
[2]; [6]
  Zeta potential (mV): 0.0 mV
[3]; [5]
  Encapsulation Efficiency %: 99.4%

## CCCCCCCCC(CCCCCC)C(=O)OCCN(CCOC(=O)C(CCCCCC)CCCCCCCC)C(=O)CN1CCCC1.Cl (centres unmarked) [Compound 960c]
[1]; [15]
  PDI: 0.079
[1]; [16]
  Size: 88 nm
[2]; [17]
  Zeta potential: −20.89 mV
[3]; [15]
  Encapsulation Efficiency %: 99.7%

## CCCCCCCCC(CCCCCC)C(=O)OCCN(CCOC(=O)C(CCCCCC)CCCCCCCC)C(=O)CN(C)CC.Cl (centres unmarked) [Compound 966]
[1]; [15]
  PDI: 0.076
[1]; [16]
  Size: 89.5 nm
[2]; [17]
  Zeta potential: −36.65 mV
[3]; [15]
  Encapsulation Efficiency %: 97.8%

## CCCCCCCCCC(=O)OCCN(CCOC(=O)CCCCCCCCC)C(=O)CN [Compound 104]
[1]; [11]
  PDI: 0.441
  Size: 74.7 nm
[2]; [12]
  Zeta potential: −2.361 mV
[3]; [11]
  Encapsulation Efficiency %: 94.4%
